The values below come from PMC4433340 (PLoS Neglected Tropical Diseases, 2015).

This assay has as its system E-selectin, ICAM-1 and VCAM-1 expression on T. cruzi-infected EA.hy926 and HUVEC cells. Kind of assay: Endothelial cell adhesion molecule surface expression by flow cytometry / immunofluorescence. Format: cell-based, human. Particulars: 5 μM simvastatin or 20 μM benznidazole for 24 hours before 16 hours T. cruzi infection (MOI 10); EA.hy926 and HUVEC. As to the method: Then, cells were infected with trypomastigotes at a MOI of 10 and incubated for 16 hours. Cells were detached with 1X EDTA-PBS at 0.5 mM. The harvested cells were washed with cold PBS and centrifuged at 800 x g for 5 minutes. Then, cells were washed with flow cytometry buffer three times. 100 μL of cell suspensions were incubated for 45 min at 4°C in the dark with mouse monoclonal anti- human E-selectin (5 μL undiluted), ICAM-1(3 μL undiluted), and VCAM-1 (1 μL undiluted) that were conjugated with PE, FITC and APC, respectively (BioLegend, USA). Cell suspensions were analyzed by flow cytometry using a FACSAria-III flow cytometer (BD Biosciences, USA). A homogeneous cell population was selected by size vs. granularity in log scale for these two conditions.
2x10^4 EA.hy926 cells/slide were seeded in Lab-Tek II Chamber Slide^TM (ThermoScientific, USA) and allowed to adhere overnight. […] After 16 hours of infection, cells were fixed in 4% formaldehyde–0.1 M phosphate buffer (pH 7.3) for 10 min. Cells were blocked with 3% bovine serum albumin for 1 hour. Then, cells were incubated with monoclonal antibodies against E-selectin (1:100), VCAM-1 (1:250) and ICAM-1 (1:100) (from Abcam, UK) overnight at 4°C. The samples were washed with PBS and incubated with anti-rabbit IgG that had been conjugated with fluorescein (1:100) from Sigma-Aldrich for 1 h. Finally, nuclei were stained with DAPI for 5 minutes and mounted with Dako Fluorescence Mounting (Dako, USA). The cells were photographed using a Nikon Eclipse 400 fluorescence microscope (Nikon, Japan), and images were analyzed by mean intensity using ImageJ software (ImageJ 1.47v).

As to `O=C(Cn1ccnc1[N+](=O)[O-])NCc1ccccc1` [Benznidazole], the “E-selectin, ICAM-1 and VCAM-1 surface expression” value is “prevent cell adhesion molecule expression”.
